Measured values: US20260070945A1, “MACROCYCLIC IMMUNOMODULATORS” (Bristol-Myers Squibb Company, priority 2022, published 2026)
*1 amine or outer side, *2 acyl side, *3 side chain or, on linkers, in order; H or OH if unused. Where a SMILES comes first, the peptide text is derived from it. Bridges are numbered along the chain shown (N, C = ends). [ ]: non-standard residue; d: D form. The star is where a group is joined. ξ: configuration not given here. X5 = O=C([C@H](Cc1ccc(-c2cc(F)c(F)c(F)c2)cc1)N[*:1])[*:2]; Phe(4-COOH) = N[C@@H](Cc1ccc(C(=O)O)cc1)C(=O)O; Bip = N[C@@H](Cc1ccc(-c2ccccc2)cc1)C(=O)O; Phe(4-CN) = N#Cc1ccc(C[C@H](N)C(=O)O)cc1; Phe(3-Me) = Cc1cccc(C[C@H](N)C(=O)O)c1; Val(3-OH) = CC(C)(O)[C@H](N)C(=O)O; NMeR = CN[C@@H](CCCNC(=N)N)C(=O)O; hhGln = NC(=O)CCCC[C@H](N)C(=O)O; 4Pal = N[C@@H](Cc1ccncc1)C(=O)O; Cha = N[C@@H](CC1CCCCC1)C(=O)O; Cit = NC(=O)NCCC[C@H](N)C(=O)O; Thr(3ξ) = CC(O)[C@H](N)C(=O)O; hSer = N[C@@H](CCO)C(=O)O; Carboxymethyl = O=C(O)C*; NMeA = CN[C@@H](C)C(=O)O; Orn = NCCC[C@H](N)C(=O)O; Aun = NCCCCCCCCCCC(=O)O; Dab = NCC[C@H](N)C(=O)O; AEEA = NCCOCCOCC(=O)O

What follows are compounds tested against T1, PD-1/PD-L1 interaction (PE-labeled human PD-L1-Ig binding to Jurkat cell line over-expressing human PD-1) (Homo sapiens, UniProt Q15116) (assay: Jurkat-PD-1 Cell Binding High-Content Screening Assay (CBA)). Details: Jurkat-hPD-1 cells, PE-labeled PD-L1-Ig 20 nM final; read-out: Jurkat HPD1 PDL1 IC50.
T1 construct: expressed in transfected cells; host or cells: Jurkat
T1 sequence (Q15116 25-288): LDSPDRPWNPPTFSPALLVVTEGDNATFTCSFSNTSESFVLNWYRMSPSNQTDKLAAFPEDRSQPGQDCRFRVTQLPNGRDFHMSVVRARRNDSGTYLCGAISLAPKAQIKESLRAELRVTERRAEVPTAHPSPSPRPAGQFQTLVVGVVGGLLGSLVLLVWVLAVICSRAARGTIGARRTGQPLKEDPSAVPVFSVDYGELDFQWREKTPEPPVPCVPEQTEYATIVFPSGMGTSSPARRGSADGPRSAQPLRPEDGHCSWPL
Outline: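 Read-out: high-content imaging of cell-bound PE fluorescence, with Hoechst 33342 nuclear counterstain after paraformaldehyde fixation. Before labeled ligand (20 nM final, 1 h) was added, compound sat on the cells for 2 h at 37 °C in DMEM/10% FCS.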

SMILES | IC50 [nM]
CC(C)C[C@@H]1NC(=O)[C@H](Cc2c[nH]c3ccccc23)NC(=O)[C@H](CC(=O)O)NC(=O)[C@H](Cc2ccc(C(=O)O)cc2)NC(=O)[C@H](Cc2ccc(OCC(=O)O)cc2)NC(=O)CSC[C@@H](C(=O)NCCOCCOCC(=O)NCCCCCCCCCCC(=O)O)NC(=O)[C@H](CCO)NC(=O)[C@H](C(C)C)NC(=O)[C@H](CC2CCCCC2)NC(=O)[C@H](CCN)NC(=O)[C@@H](CC(C)C)NC(=O)[C@H](C)N(C)C(=O)[C@H](CCC(N)=O)NC(=O)[C@H](Cc2ccc(-c3ccccc3)cc2)NC1=O [Example 2227] ({CH2CO}-Y(Carboxymethyl)[Phe(4-COOH)]DWL[Bip]Q[NMeA][dL][Dab][Cha]V[hSer]C[AEEA][Aun]-OH; thioether N-14) | 34
Cc1cccc(C[C@@H]2NC(=O)[C@H](CC(=O)O)NC(=O)[C@H](Cc3ccc(OCC(=O)O)cc3)NC(=O)[C@H]([C@@H](C)O)NC(=O)CSC[C@@H](C(=O)N[C@@H](CCN)C(=O)NCCCCCCCCCCC(=O)O)NC(=O)[C@H]([C@@H](C)O)NC(=O)[C@H](C(C)C)NC(=O)[C@H](CC3CCCCC3)NC(=O)[C@H](CCN)NC(=O)[C@@H](CC(C)C)NC(=O)[C@H](C)N(C)C(=O)[C@H](Cc3ccc(OCC(=O)O)cc3)NC(=O)[C@H](Cc3ccc(-c4cc(F)c(F)c(F)c4)cc3)NC(=O)[C@H](Cc3ccc(C(=O)O)cc3)NC2=O)c1 [Example 1236] ({CH2CO}-TY(Carboxymethyl)D[Phe(3-Me)][Phe(4-COOH)][X5]Y(Carboxymethyl)[NMeA][dL][Dab][Cha]VTC[Dab][Aun]-OH; thioether N-14) | 54.5
CC(C)C[C@@H]1NC(=O)[C@H](Cc2c[nH]c3ccccc23)NC(=O)[C@H](CC(=O)O)NC(=O)[C@H](Cc2ccc(C(=O)O)cc2)NC(=O)[C@H](Cc2ccc(OCC(=O)O)cc2)NC(=O)CSC[C@@H](C(=O)N[C@@H](CCCN)C(=O)NCCOCCOCC(=O)NCCCCCCCCCCC(=O)O)NC(=O)[C@H](CCCCC(N)=O)NC(=O)[C@H](C(C)C)NC(=O)[C@H](CC2CCCCC2)NC(=O)[C@H](CCN)NC(=O)[C@@H](CC(C)C)NC(=O)[C@H](C)N(C)C(=O)[C@H](C(C)C)NC(=O)[C@H](Cc2ccc(-c3ccccc3)cc2)NC1=O [Example 2128] ({CH2CO}-Y(Carboxymethyl)[Phe(4-COOH)]DWL[Bip]V[NMeA][dL][Dab][Cha]V[hhGln]C[Orn][AEEA][Aun]-OH; thioether N-14) | 8.9
CC(C)C[C@@H]1NC(=O)[C@H](Cc2c[nH]c3ccccc23)NC(=O)[C@H](CC(=O)O)NC(=O)[C@H](Cc2ccc(OCC(=O)O)cc2)NC(=O)[C@H](Cc2ccccc2)NC(=O)CSC[C@@H](C(=O)N[C@@H](CCCN)C(=O)NCCCCCCCCCCC(=O)O)NC(=O)[C@H](CCC(=O)O)NC(=O)[C@H](C(C)C)NC(=O)[C@H](CC(C)C)NC(=O)[C@H](CC(N)=O)NC(=O)[C@@H](CC(C)C)NC(=O)[C@H](C)N(C)C(=O)[C@H](C(C)C)NC(=O)[C@H](Cc2ccc(-c3ccccc3)cc2)NC1=O [Example 1336] ({CH2CO}-FY(Carboxymethyl)DWL[Bip]V[NMeA][dL]NLVEC[Orn][Aun]-OH; thioether N-14) | 198
CC(C)C[C@@H]1NC(=O)[C@H](Cc2c[nH]c3ccccc23)NC(=O)[C@H](CC(=O)O)NC(=O)[C@H](Cc2ccc(C(=O)O)cc2)NC(=O)[C@H](Cc2ccc(OCC(=O)O)cc2)NC(=O)CSC[C@@H](C(=O)N[C@@H](CCCCN)C(=O)NCCOCCOCC(=O)NCCCCCCCCCCC(=O)O)NC(=O)[C@@H](CO)NC(=O)[C@H](C(C)C)NC(=O)[C@H](CC2CCCCC2)NC(=O)[C@H](CCN)NC(=O)[C@@H](CC(C)C)NC(=O)[C@H](C)N(C)C(=O)[C@H](C(C)C)NC(=O)[C@H](Cc2ccc(-c3ccccc3)cc2)NC1=O [Example 1246] ({CH2CO}-Y(Carboxymethyl)[Phe(4-COOH)]DWL[Bip]V[NMeA][dL][Dab][Cha]V[dS]CK[AEEA][Aun]-OH; thioether N-14) | 31.9
Cc1cccc(C[C@@H]2NC(=O)[C@H](CC(=O)O)NC(=O)[C@H](Cc3ccc(C(=O)O)cc3)NC(=O)[C@H](Cc3ccncc3)NC(=O)CSC[C@@H](C(=O)N[C@@H](CCN)C(=O)NCCOCCOCC(=O)NCCCCCCCCCCC(=O)O)NC(=O)[C@H](CCCN)NC(=O)[C@H](C(C)C)NC(=O)[C@H](CC3CCCCC3)NC(=O)[C@H](CCN)NC(=O)[C@@H](CC(C)C)NC(=O)[C@H](C)N(C)C(=O)[C@H](Cc3ccc(OCC(=O)O)cc3)NC(=O)[C@H](Cc3ccc(-c4ccccc4)cc3)NC(=O)[C@H](Cc3ccc(OCC(=O)O)cc3)NC2=O)c1 [Example 1405] ({CH2CO}-[4Pal][Phe(4-COOH)]D[Phe(3-Me)]Y(Carboxymethyl)[Bip]Y(Carboxymethyl)[NMeA][dL][Dab][Cha]V[Orn]C[Dab][AEEA][Aun]-OH; thioether N-14) | 23.6
Cc1cccc(C[C@@H]2NC(=O)[C@H](CC(=O)O)NC(=O)[C@H](Cc3ccc(C(=O)O)cc3)NC(=O)[C@H](CCN)NC(=O)CSC[C@@H](C(=O)N[C@@H](CCN)C(=O)NCCCCCCCCCCC(=O)O)NC(=O)[C@H](CO)NC(=O)[C@H](C(C)(C)O)NC(=O)[C@H](CC3CCCCC3)NC(=O)[C@H](CCN)NC(=O)[C@@H](CC(C)C)NC(=O)[C@H](C)N(C)C(=O)[C@H](Cc3ccc(OCC(=O)O)cc3)NC(=O)[C@H](Cc3ccc(-c4ccccc4)cc3)NC(=O)[C@H](Cc3ccc(C#N)cc3)NC2=O)c1 [Example 1300] ({CH2CO}-[Dab][Phe(4-COOH)]D[Phe(3-Me)][Phe(4-CN)][Bip]Y(Carboxymethyl)[NMeA][dL][Dab][Cha][Val(3-OH)]SC[Dab][Aun]-OH; thioether N-14) | 21.5
Cc1cccc(C[C@@H]2NC(=O)[C@H](CC(=O)O)NC(=O)[C@H](Cc3ccc(OCC(=O)O)cc3)NC(=O)[C@H]([C@@H](C)O)NC(=O)CSC[C@@H](C(=O)N[C@@H](CCN)C(=O)NCCOCCOCC(=O)NCCCCCCCCCCC(=O)O)NC(=O)[C@H]([C@@H](C)O)NC(=O)[C@H](C(C)C)NC(=O)[C@H](CC3CCCCC3)NC(=O)[C@H](CCC(=O)O)NC(=O)[C@@H](CC(C)C)NC(=O)[C@H](C)N(C)C(=O)[C@H](Cc3ccc(OCC(=O)O)cc3)NC(=O)[C@H](Cc3ccc(-c4ccccc4)cc3)NC(=O)[C@H](Cc3ccc(OCC(=O)O)cc3)NC2=O)c1 [Example 1375] ({CH2CO}-TY(Carboxymethyl)D[Phe(3-Me)]Y(Carboxymethyl)[Bip]Y(Carboxymethyl)[NMeA][dL]E[Cha]VTC[Dab][AEEA][Aun]-OH; thioether N-14) | 31.8

Further lines, results first:

IC50 [nM] | SMILES
16.1 | Cc1cccc(C[C@@H]2NC(=O)[C@H](CC(=O)O)NC(=O)[C@H](Cc3ccc(C(=O)O)cc3)NC(=O)[C@H](Cc3ccc(OCC(=O)O)cc3)NC(=O)CSC[C@@H](C(=O)NCCCCCCCCCCC(=O)O)NC(=O)[C@H](CCCNC(N)=O)NC(=O)[C@H](C(C)C)NC(=O)[C@H](CC3CCCCC3)NC(=O)[C@H](CCN)NC(=O)[C@@H](CC(C)C)NC(=O)[C@H](C)N(C)C(=O)[C@H](CCC(N)=O)NC(=O)[C@H](Cc3ccc(-c4ccccc4)cc3)NC(=O)[C@H](CC(C)C)NC2=O)c1 [Example 2246] ({CH2CO}-Y(Carboxymethyl)[Phe(4-COOH)]D[Phe(3-Me)]L[Bip]Q[NMeA][dL][Dab][Cha]V[Cit]C[Aun]-OH; thioether N-14)
10.1 | Cc1cccc(C[C@@H]2NC(=O)[C@H](CC(=O)O)NC(=O)[C@H](Cc3ccc(OCC(=O)O)cc3)NC(=O)[C@H](C(C)O)NC(=O)CSC[C@@H](C(=O)N[C@H](CC(N)=O)C(=O)NCCCCCCCCCCC(=O)O)NC(=O)[C@H](C(C)O)NC(=O)[C@H](C(C)C)NC(=O)[C@H](CC3CCCCC3)NC(=O)[C@H](CCN)NC(=O)[C@@H](CC(C)C)NC(=O)[C@H](C)N(C)C(=O)[C@H](CCCNC(N)=O)NC(=O)[C@H](Cc3ccc(-c4ccccc4)cc3)NC(=O)[C@H](C(C)C)NC2=O)c1 (stereo partly drawn) [Example 2313] ({CH2CO}-[Thr(3ξ)]Y(Carboxymethyl)D[Phe(3-Me)]V[Bip][Cit][NMeA][dL][Dab][Cha]V[Thr(3ξ)]C[dN][Aun]-OH; thioether N-14)
5 | Cc1cccc(C[C@@H]2NC(=O)[C@H](CC(=O)O)NC(=O)[C@H](Cc3ccc(OCC(=O)O)cc3)NC(=O)[C@H]([C@@H](C)O)NC(=O)CSC[C@@H](C(=O)NCCOCCOCC(=O)NCCCCCCCCCCC(=O)O)NC(=O)[C@H](CO)NC(=O)[C@H](C(C)(C)O)NC(=O)[C@H](CC3CCCCC3)NC(=O)[C@H](CCN)NC(=O)[C@@H](CC(C)C)NC(=O)[C@H](C)N(C)C(=O)[C@H](CCCNC(N)=O)NC(=O)[C@H](Cc3ccc(-c4ccccc4)cc3)NC(=O)[C@H](C(C)C)NC2=O)c1 [Example 1403] ({CH2CO}-TY(Carboxymethyl)D[Phe(3-Me)]V[Bip][Cit][NMeA][dL][Dab][Cha][Val(3-OH)]SC[AEEA][Aun]-OH; thioether N-14)
151 | Cc1cccc(C[C@@H]2NC(=O)[C@H](CC(=O)O)NC(=O)[C@H](Cc3ccc(OCC(=O)O)cc3)NC(=O)[C@H](C(C)O)NC(=O)CSC[C@@H](C(=O)N(C)[C@@H](CCCNC(=N)N)C(=O)NCCCCCCCCCCC(=O)O)NC(=O)[C@H](CO)NC(=O)[C@H](C(C)C)NC(=O)[C@H](CC3CCCCC3)NC(=O)[C@H](CCN)NC(=O)[C@@H](CC(C)C)NC(=O)[C@H](C)N(C)C(=O)[C@H](C(C)C)NC(=O)[C@H](Cc3ccc(-c4ccccc4)cc3)NC(=O)[C@H](C(C)C)NC2=O)c1 (stereo partly drawn) [Example 2301] ({CH2CO}-[Thr(3ξ)]Y(Carboxymethyl)D[Phe(3-Me)]V[Bip]V[NMeA][dL][Dab][Cha]VSC[NMeR][Aun]-OH; thioether N-14)

Same assay, conditions: PE-labeled PD-L1-Ig 20 nM final, Jurkat-hPD-1 cells; read-out: Jurkat HPD1 PDL1 IC50

IC50 [nM] | SMILES
16.8 | CC(=O)NCCCC[C@@H]1NC(=O)[C@H](Cc2ccc(-c3ccccc3)cc2)NC(=O)[C@H](CC(C)C)NC(=O)[C@H](Cc2c[nH]c3ccccc23)NC(=O)[C@H](CC(=O)O)NC(=O)[C@H](Cc2ccc(OCC(=O)O)cc2)NC(=O)[C@H](Cc2ccc(OCC(=O)O)cc2)NC(=O)CSC[C@@H](C(=O)NCCOCCOCC(=O)NCCCCCCCCCCC(=O)O)NC(=O)[C@H](CO)NC(=O)[C@H](C(C)C)NC(=O)[C@H](CC2CCCCC2)NC(=O)[C@H](CCN)NC(=O)[C@@H](CC(C)C)NC(=O)[C@H](C)N(C)C1=O [Example 2438] ({CH2CO}-Y(Carboxymethyl)Y(Carboxymethyl)DWL[Bip]K(Ac)[NMeA][dL][Dab][Cha]VSC[AEEA][Aun]-OH; thioether N-14)
